# Measurements published in ChEMBL document CHEMBL1201862, “PubChem BioAssay data set” (2004).
# Activity calls are given as the source filed them.
# What was measured:
# [1] = biological target: Mitogen-activated protein kinase 10 (Homo sapiens, UniProt P53779); assay: Dose response biochemical screening assay for inhibitors of c-Jun N-Terminal Kinase 3 (JNK3). [Related pubchem assays: 746 ]
# Major prion protein = Major prion protein (Homo sapiens, UniProt P04156); format: functional, cell-based
# cells [2] = assay: cells
# [3] = HeLa cell cytotoxicity, dose response, cytotoxicity control for MgcRacGAP inhibitor project (AID 624300); format: functional
# [4] = biological target: T1, Rac GTPase-activating protein 1 (Homo sapiens, UniProt Q9H0H5); assay: MgcRacGAP GTPase-activating activity inhibitors, confirmation, biochemical, ADP Hunter fluorescence, primary and confirmatory (AID 624330); format: functional
# T1 sequence (Q9H0H5 whole entry): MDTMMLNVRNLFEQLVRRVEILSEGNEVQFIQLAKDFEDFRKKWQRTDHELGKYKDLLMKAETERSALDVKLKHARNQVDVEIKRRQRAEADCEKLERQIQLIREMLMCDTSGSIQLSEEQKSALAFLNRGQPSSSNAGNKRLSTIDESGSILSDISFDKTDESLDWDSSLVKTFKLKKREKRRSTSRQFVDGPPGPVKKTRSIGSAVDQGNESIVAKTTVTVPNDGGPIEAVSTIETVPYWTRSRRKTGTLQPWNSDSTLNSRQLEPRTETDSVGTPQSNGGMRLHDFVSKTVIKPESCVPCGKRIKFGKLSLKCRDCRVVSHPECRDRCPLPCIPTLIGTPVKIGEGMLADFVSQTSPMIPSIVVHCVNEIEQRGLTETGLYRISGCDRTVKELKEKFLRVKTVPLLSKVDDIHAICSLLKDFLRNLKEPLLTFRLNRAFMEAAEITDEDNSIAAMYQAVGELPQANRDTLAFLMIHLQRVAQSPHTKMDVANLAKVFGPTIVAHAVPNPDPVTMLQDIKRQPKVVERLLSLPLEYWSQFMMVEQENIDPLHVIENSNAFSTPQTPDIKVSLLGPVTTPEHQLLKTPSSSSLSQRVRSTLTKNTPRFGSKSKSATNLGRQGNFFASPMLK
# [5] = NIH/3T3 fibroblast cytotoxicity, dose response, cytotoxicity control for T. cruzi growth inhibitor project, cell-based, cherry-pick samples, set 2 (AID 651817); format: functional; conditions: NIH3T3
# [6] = intracellular Trypanosoma cruzi inhibitors in host cells – cell-based, plate reader, cherry-pick samples, set 3, dose response (AID 651818); format: functional;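 note: compounds incubated with infected cells for about four days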
# cells [7] = format: functional, cell-based
# [8] = biological target: T2, Trace amine-associated receptor 1 (Homo sapiens, UniProt Q96RJ0); assay: Fluorescence-based cell-based high throughput dose response assay to identify agonists of the human trace amine associated receptor 1 (TAAR1).; format: functional
# T2 sequence (Q96RJ0 whole entry): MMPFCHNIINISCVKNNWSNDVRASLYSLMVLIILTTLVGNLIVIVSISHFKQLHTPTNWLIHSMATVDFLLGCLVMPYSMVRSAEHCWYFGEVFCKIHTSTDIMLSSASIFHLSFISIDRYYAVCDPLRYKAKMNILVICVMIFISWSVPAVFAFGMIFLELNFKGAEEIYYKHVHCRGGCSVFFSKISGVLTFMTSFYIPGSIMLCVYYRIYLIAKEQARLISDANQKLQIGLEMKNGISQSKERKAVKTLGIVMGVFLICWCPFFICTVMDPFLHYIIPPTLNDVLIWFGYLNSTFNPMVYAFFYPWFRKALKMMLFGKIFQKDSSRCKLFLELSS
# [9] = biological target: T2, Trace amine-associated receptor 1; assay: Counterscreen for agonists of the human trace amine associated receptor 1 (hTAAR1): Fluorescence-based cell-based high throughput dose response assay to identify hTAAR1 agonist that also desensitize TAAR1 receptor response.; format: functional
# cells [10] = format: functional, cell-based; remark: listed apart in the source
# [11] = Luminescence Cell-Based Dose Response HTS to Identify Activators of Luciferase Translation or Activity in H4 […] Cells. [Related pubchem assays: 1829 (Project Summary), 1814 (Primary HTS)]; format: functional
# H4 = assay: Luminescence Cell-Based Dose Response HTS to Identify Activators of 5'UTR Stem-Loop Driven Prion Protein mRNA Translation in H4 Neuroglioblastoma Cells. [Related pubchem assays: 1829 (Project Summary), 1814 (Primary HTS)]; format: functional; conditions: Homo sapiens
# [12] = biological target: T3, Heat shock factor protein 1 (Mus musculus, UniProt P38532); assay: inhibition of MG132-induced HSE-luciferase signal, confirmation, cell-based, NIH3T3, luminescence, dose retest (AID 2382); format: functional;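 note: NIH3T3 fibroblasts with HSF1-driven luciferase reporter stressed by proteasome inhibitor MG132; luminescence from HSF1-driven luciferase expression after 8 hours of MG132 stress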
# T3 sequence (P38532 whole entry): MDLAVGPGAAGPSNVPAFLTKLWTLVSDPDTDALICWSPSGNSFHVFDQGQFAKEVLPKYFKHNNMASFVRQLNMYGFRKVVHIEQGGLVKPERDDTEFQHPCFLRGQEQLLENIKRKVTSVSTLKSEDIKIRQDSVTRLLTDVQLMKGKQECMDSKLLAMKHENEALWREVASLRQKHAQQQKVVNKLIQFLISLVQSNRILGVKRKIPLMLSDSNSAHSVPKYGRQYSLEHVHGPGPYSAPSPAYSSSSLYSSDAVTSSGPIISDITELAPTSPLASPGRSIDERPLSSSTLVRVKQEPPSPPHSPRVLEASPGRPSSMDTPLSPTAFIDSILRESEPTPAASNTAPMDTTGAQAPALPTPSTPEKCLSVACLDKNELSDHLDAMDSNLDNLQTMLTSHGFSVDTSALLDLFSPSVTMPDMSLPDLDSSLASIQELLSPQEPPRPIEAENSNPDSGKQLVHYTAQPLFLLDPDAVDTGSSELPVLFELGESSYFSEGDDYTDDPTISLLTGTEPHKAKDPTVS
# [13] = THP-1 cell cytotoxicity, dose response, cytotoxicity control for non-replicating M. tuberculosis project (AID 489025); format: functional
# [14] = HepG2 cell cytotoxicity, dose response, cytotoxicity control for non-replicating M. tuberculosis project (AID 489018); format: functional; conditions: Mycobacterium tuberculosis
# [15] = Vero E6 cell cytotoxicity, dose response, cytotoxicity control for non-replicating M. tuberculosis project, secondary assay (AID 492998); format: functional, VeroE6; conditions: Vero C1008
# HEK293 = assay: cells; format: functional, cell-based; conditions: Homo sapiens
# [16] = biological target: T4, Nuclear receptor subfamily 0 group B member 1 (Homo sapiens, UniProt P51843); assay: Luminescence-based cell-based high throughput dose response assay for inhibitors of the orphan nuclear receptor subfamily 0, group B, member 1 (DAX1; NR0B1). [Related pubchem assays (depositor defined):AID504766, AID504790]; format: functional
# T4 sequence (P51843 whole entry): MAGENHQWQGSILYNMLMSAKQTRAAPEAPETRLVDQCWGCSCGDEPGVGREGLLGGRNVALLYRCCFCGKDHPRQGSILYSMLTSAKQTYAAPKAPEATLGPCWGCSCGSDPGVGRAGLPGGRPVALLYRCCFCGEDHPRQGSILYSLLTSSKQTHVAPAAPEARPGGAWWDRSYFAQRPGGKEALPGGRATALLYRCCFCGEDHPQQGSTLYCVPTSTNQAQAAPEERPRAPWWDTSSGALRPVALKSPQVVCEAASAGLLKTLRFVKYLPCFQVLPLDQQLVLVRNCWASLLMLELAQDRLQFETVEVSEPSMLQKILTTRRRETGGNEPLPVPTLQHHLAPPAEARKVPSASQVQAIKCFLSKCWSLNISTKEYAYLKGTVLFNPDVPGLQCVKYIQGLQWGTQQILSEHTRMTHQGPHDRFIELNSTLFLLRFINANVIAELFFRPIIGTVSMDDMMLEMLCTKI
# [17] = HepG2 cell cytotoxicity, dose response, cytotoxicity control, ATP luminescence, cherry-pick, activator set 2 (AID 1053143); format: functional, cell-based
# [18] = biological target: T5, Corticotropin-releasing factor receptor 2/Corticotropin-releasing factor-binding protein (Homo sapiens, UniProt P24387+Q13324); assay: Dose Response confirmation of uHTS hits for small molecule antagonists of the CRF-binding protein and CRF-R2 receptor complex.; format: functional; conditions: read-out: IC50_Mean
# T5 sequence (Q13324 whole entry): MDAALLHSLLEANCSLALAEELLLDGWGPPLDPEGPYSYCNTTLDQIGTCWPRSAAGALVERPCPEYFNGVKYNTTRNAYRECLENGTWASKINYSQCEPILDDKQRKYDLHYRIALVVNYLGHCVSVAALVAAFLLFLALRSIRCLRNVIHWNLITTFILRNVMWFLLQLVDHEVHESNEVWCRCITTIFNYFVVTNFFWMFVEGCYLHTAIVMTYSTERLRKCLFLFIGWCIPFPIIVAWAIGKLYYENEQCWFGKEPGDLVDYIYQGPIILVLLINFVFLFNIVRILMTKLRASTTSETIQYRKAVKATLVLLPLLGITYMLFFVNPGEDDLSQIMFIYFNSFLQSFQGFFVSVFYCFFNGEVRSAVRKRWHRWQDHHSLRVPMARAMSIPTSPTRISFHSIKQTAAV
# T5 sequence (P24387 whole entry): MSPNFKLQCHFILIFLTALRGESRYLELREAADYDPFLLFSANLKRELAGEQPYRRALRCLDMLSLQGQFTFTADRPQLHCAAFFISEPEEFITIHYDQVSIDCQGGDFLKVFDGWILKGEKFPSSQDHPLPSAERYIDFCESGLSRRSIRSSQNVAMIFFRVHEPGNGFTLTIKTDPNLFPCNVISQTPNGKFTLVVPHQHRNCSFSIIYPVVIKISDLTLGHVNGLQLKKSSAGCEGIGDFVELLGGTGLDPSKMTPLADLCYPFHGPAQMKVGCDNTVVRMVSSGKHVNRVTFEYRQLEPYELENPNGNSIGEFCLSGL
# [19] = biological target: T5, Corticotropin-releasing factor receptor 2/Corticotropin-releasing factor-binding protein; assay: activators of CRF receptor 2 with binding protein – uHTS hits, confirmation (AID 602473); format: functional; conditions: read-out: EC50_Mean
# [20] = biological target: DNA repair protein RAD52 homolog (Homo sapiens, UniProt P43351); format: functional, biochemical
# Beta-galactosidase = Beta-galactosidase (Escherichia coli, UniProt Q8VNN2); assay: Dose response counterscreen for EBI2 assay utilizing the enzyme, b-galactosidase.; format: functional
# HeLa = assay: HeLa cell cytotoxicity, dose response, cytotoxicity control, ATP luminescence, cherry-pick samples (AID 687004); format: functional, cell-based; conditions: Homo sapiens
compound,measurement,setting,value
COC(=O)c1sccc1NC(=O)C1CC=CCC1C(=O)O (stereo not given),IC50,[1],19.8 µM (not active)
same,IC50,Major prion protein,2.48 µM (active)
same,IC50,cells [2],> 138 µM (inactive)
CC1CC(=O)N(c2ccc(NCCc3ccc(O)cc3)c([N+](=O)[O-])c2)C1=O (stereo not given),CC50,[3],100 µM (active)
same,IC50,[4],52.9 µM (active)
C[C@H](CO)N1C[C@H](C)[C@@H](CN(C)Cc2ccccc2)Oc2c(NC(=O)c3ccncc3)cccc2C1=O,AC50,[5],39 µM (inactive)
same,AC50,[6],179 nM (active)
CC1(C)CC(=O)C(C(=O)/C=C/NCCc2ccccc2)C(=O)C1,IC50,cells [7],> 29.9 µM (inactive)
same,EC50,[8],1.46 µM (active)
same,IC50,[9],7.8 µM (active)
same,EC50,cells [10],> 29.9 µM (inactive)
Nc1ccccc1C(=O)NNC1=C(C(=O)C(F)(F)F)CCC1,EC50,[11],39.2 µM (active)
same,EC50,H4,21.7 µM (active)
same,EC50,[12],36.6 µM (active)
same,CC50,[13],14.1 µM (active)
same,CC50,[14],> 20 µM (active)
same,CC50,[15],> 20 µM (active)
same,IC50,HEK293,> 2.5 µM (active)
same,IC50,[16],> 67.5 µM (inactive)
same,AC50,[17],26 µM (active)
Cc1ccc(-c2c[n+](CC(=O)Nc3nc(-c4ccc(F)cc4)cs3)c3n2CCC3)cc1,IC50,[18],> 47.1 µM (inactive)
same,EC50,[19],> 53 µM (inactive)
same,AC50,[20],11.2 µM (active)
Cc1ccc(S(=O)(=O)N2CCN(C(=O)COc3ccc(Br)cc3)CC2)cc1,IC50,Beta-galactosidase,> 80 µM (inactive)
Cc1ccc2cc(NC(=O)c3ccccc3)ccc2n1,AC50,HeLa,> 52 µM (inactive)
